Among the data in patent US10342796B2, “Acrylanilide derivative, preparation method, and applications thereof in pharmacy” (Ancureall Pharmaceutical (Shanghai) Co., Ltd., priority 2015, dated 2019) are GI50 values, retold here.

Common to all, as to test: Growth inhibition GI50 in vitro (CCK8/MTT, 72 h)
One assay has as its system HEL (Jak2 V167F). The format is cell-based. Conditions: Homo sapiens. The protocol: Jak2 is a kind of non-receptor PTK (Janus Kinase 2) with great significance in cell growth, differentiation and transformation. Jak2 gene mutation often leads to bone marrow hyperplasia and transformation. Especially Jak2 V167F mutation is common for clinical patients. Human erythroleukemia cell line HEL expressing Jak2 V167F was cultured with 1×RPMI1640 complete medium (supplement with 10% FBS).
(§1) The suspension cells were collected by centrifugation. The supernatant was discard and the cell pellet was resuspended and counted. Different cell concentrations (5˜10×10^4 cells/mL) were prepared according to the growth cycle of each cell line and then seeded on a 96-well plate (Corning), 100 μL/well. The cells were incubated over night at 37° C., 5% CO2. The compounds were added to the cells on the second day with 2 wells in parallel. The final concentration of organic solvent shall not exceed 1%. The cells were continually incubated for 72 h, and then subjected to MTT assay.
(§2) The present compounds and the reference compounds were dissolved with DMSO (Sigma), respectively. […] The storage concentration of compounds was 10 mM and kept at −20° C. They were diluted by 2 times or 10 times with serial dilution before using.
(§3) Dojindo CCK8 reagent kit was used as MTT assay. […] FC meter was used as microplate reader.
(§4) Adherent cell culture medium was discard and immediately replaced with fresh prepared medium which contains 10% CCK8 reagent (100 μL/well). For the suspension cells, CCK8 was directly added to 10% of the final concentration. The cells were continually incubated for 1˜4 h. When the color of control wells turned to dark yellow, the absorption value was measured at OD450 nm. The cell growth rate was calculated according to the following formula: cell growth rate (%)=100*(T−T0)/(C−T0), T=optical density of drug treatment cell well—optical density of blank control well; T0=optical density of cell well before drug treatment—optical density of blank control well; C=optical density of cell well of solvent control group—optical density of blank control well. […] The experiment was independently repeated 1˜3 times, and subject to biological statistical analysis.
(§5) Growth inhibition assay was conducted in the cell lines shown Table 14 with the different oncogene mutations. Each compound started at 1000 nM as an initial concentration and was diluted by 2 times with serial dilution to 0.03 nM.

For another assay, the system named is Kasumi-1 (Kit N822K). The format is cell-based. Particulars: Homo sapiens. As for the experimental part:
Kasumi-1 is a leukemia cell line positively expressing c-Kit N822K mutant Abnormal variation of c-Kit often appears in cancer patients. Kasumi-1 cell line was cultured with 1×RPMI1640 complete medium (supplement with 10% FBS).
as §1, §2, §3, §4, §5

The next assay concerns Ramos (BTK). Format: cell-based, human. Particulars: Homo sapiens; Ramos, BTK. As for the experimental part: RAMOS is human B lymphocytic leukemia cell line positively expressing BTK. It was cultured with 1×RPMI1640 complete medium (supplement with 10% FBS).
as §1, §2, §3, §4, §5

Another assay deals with SNU-16 (FGFR2 amp). The format is cell-based. Conditions: Homo sapiens, SNU-16, EGFR wt. The protocol:
(§6) Human NSCLC cell line NCI-H1581(ATCC) contains FGFR1 gene amplification and high expression. Human gastric cancer cell line SNU-16(ATCC) contains FGFR2 gene amplification and high expression. They were cultured with 1×RPMI1640 complete medium (10% FBS), respectively.
as §1, §2, §3, §4, §5

Another assay relates to H1581 (FGFR1 amp). Format: cell-based. Particulars: Homo sapiens, NCI-H1581, H1581, EGFR wt. The protocol:
as §6, §1, §2, §3, §4, §5

For a further assay, the system named is MV4-11 (FLT3-ITD). The format is cell-based, human. Particulars: Homo sapiens; MV4-11, FLT3-ITD. As for the experimental part: FLT3 is a kind of PTK and about 20-30% of patients with acute myelocytic leukemia (AML) in clinic express FLT3-ITD mutation protein. FLT3-ITD positive cell line MV4-11 was cultured with 1×RPMI1640 complete medium (supplement with 10% FBS).
as §1, §2, §3, §4, §5

The test system of a further assay is Karpas-299 (NPM-ALK). The format is cell-based. Conditions: Homo sapiens, Karpas-299, EGFR wt.
Assay [1] deals with NCI-H1781 (HER2 exon 20 G776VC mutation). Format: cell-based. Particulars: Homo sapiens, NCI-H1781, read-out: GI50 H1781 (HER2 G776VC).

In general, GI50 refers to the concentration giving 50% growth inhibition. As for `C=CC(=O)Nc1cc(Nc2nccc(-c3cn(C)c4ccccc34)n2)c(OC)cc1N(C)CCN(C)C` [AZD9291, reference compound], the GI50 with HEL (Jak2 V167F) is more than 1000 nM; in the assay with Kasumi-1 (Kit N822K), more than 1000 nM; with Ramos (BTK), 937 nM; with SNU-16 (FGFR2 amp) it was more than 1000 nM; with H1581 (FGFR1 amp), more than 1000 nM; in the assay with MV4-11 (FLT3-ITD) it was more than 1000 nM. Moreover, the GI50 was more than 1000 nM with Karpas-299 (NPM-ALK) and 195 nM in assay [1].
